Article PMC12553364 (PeerJ, 2025)
Like-named read-outs stand apart in the source and are kept apart here.

Legend:
[1] = In vivo pharmacokinetic interaction study in Sprague-Dawley rats; settings: for AUC(0-inf) / AUC(0-t) / Cmax / Tmax / half-life / CL/F: male, Sprague-Dawley, rat, plasma, po, 25 mg/kg, rat plasma, n = 5, mean ± S.D.; for CL/F: read-out: CLz/F (converted)
Method: Protein precipitation was used to remove proteins from plasma and extract the test materials. To this end, 100 µL of plasma sample was combined with 10 µL of the IS working solution (400 ng/mL) and 300 µL of acetonitrile. The mixture was then centrifuged at 13,000 rpm for 10 min at 4 °C to ensure complete protein precipitation. After centrifugation, the supernatant was carefully collected and transferred into a sample vial. Finally, 2.0 µL of sample was injected for UPLC-MS/MS analysis.
The study was approved by Institutional Animal Care and Use Committee of the First Affiliated Hospital of Wenzhou Medical University (Approval No. WYYY-IACUC-AEC-2024-079). The experimental animals were cared in accordance with the Guide for the Care and Use of Laboratory Animals issued by the National Research Council, complying with the ARRIVE guidelines. The 6–8 weeks old Sprague-Dawley rats were obtained from Vital River Laboratory Animal Technology Co., Ltd (China, Zhejiang). The rats were housed at 25 °C and given a 14-day acclimation period under experimental conditions to reduce potential variability.
Due to the similarity between their hepatic enzyme system and humans, SD male rats are widely used in pharmacokinetics ([Riccardi et al., 2018]; [Martignoni, Groothuis & De Kanter, 2006]). A total of 10 SD male rats (200 ± 20 g) were randomly divided into two groups (n = 5): Group A (control group) and Group B (experimental group). The animals were fasted for 12 h prior to the experiment but had free access to water. […] And the concentration of tropifexor was determined to be 20 µg/kg based on body surface area conversion from human administered doses in prior literature ([Chen et al., 2022a]). Experimental group was received of tropifexor (20 µg/kg) via oral gavage, whereas control group was administered of an equivalent volume of corn oil. […] Blood samples were then collected at different time points at 0.5, 1, 1.5, 2, 4, 8, 12, 24, and 48 h after administration. Each blood sample (approximately 0.3 mL) was taken from the caudal veins, and was collected into 1.5 mL heparinized polyethylene tubes. After centrifuged at 13,000 rpm for 10 min, the supernatant was collected and stored at −80 °C. The plasma sample was treated according to 2.4 Pre-treatment of samples before UPLC-MS/MS analysis.
Pharmacokinetic parameters were calculated using the Drug and Statistics (DAS) software (version 3.0 software, Mathematical Pharmacology Professional Committee of China, Shanghai, China) with non-compartment model analyses based on the input data of drug administration route, dosage, drug concentration, and time.

[2] = Stability of analytes in rat plasma (UPLC-MS/MS method validation); assay type: in vitro ADME; settings: n = 5
Method: The sensitivity of the method was reflected by the lower limit of quantification (LLOQ), which was also the lowest quantitative point. The LLOQ and three QC samples were obtained by the same method. […] All chemicals and solutions were stored at −80 °C for further use. Protein precipitation was used to remove proteins from plasma and extract the test materials. […] The mixture was then centrifuged at 13,000 rpm for 10 min at 4 °C to ensure complete protein precipitation. After centrifugation, the supernatant was carefully collected and transferred into a sample vial. Finally, 2.0 µL of sample was injected for UPLC-MS/MS analysis. The calibration curve, selectivity, accuracy, precision, recovery, matrix effect, and stability of the method established in this study were validated according to the FDA Bioanalytical Method Validation Guidance and the guidelines from the National Medical Products Administration (NMPA). Detailed information regarding the evaluation could be found in the Results and Discussion sections.

[3] = parameters: method as in Johnson et al., 2015; settings: humans; ref Johnson et al., 2015; cited from earlier work
[4] = cited from earlier work
[5] = parameters: method as in Xu et al., 2015; settings: compared to a single oral dose of 150 mg crizotinib; ref Xu et al., 2015; cited from earlier work
[6] = parameters: method as in Chen, Li & Chen, 2022; settings: PBPK model, cancer patients; ref Chen, Li & Chen, 2022; cited from earlier work
RLM = system: RLM; parameters: method as in Wang et al., 2024; settings: read-out: Km of crizotinib, ref Wang et al., 2024; cited from earlier work
[7] = parameters: method as in Qiu et al., 2016; settings: ref Qiu et al., 2016, cited from earlier work
[8] = parameters: method as in Ou, 2011; settings: humans, single oral dose of 250 mg/d; ref Ou, 2011; cited from earlier work
in vitro [9] = settings: rat, rat liver microsomes, pH 7.4
Method: (§1) Before measurement, the mixture without NADPH was pre-incubated at 37 °C for 5 min. Then, one mM of NADPH was given to incubate the reaction in a water bath with shaking at a rate of 200 times/min. After 30 min, the reaction was terminated by cooling at −80 °C. Next, 300 µL acetonitrile and 10 µL of the IS working solution were added to the mixture. After shaking for 2 min, the supernatant was obtained by centrifugation at 13,000 rpm for 10 min and subjected to UPLC-MS/MS analysis.
(§2) The Km, IC50, the Lineweaver-Burk plot and the mean plasma concentration–time curve were calculated and plotted using GraphPad Prism 9.0 software (GraphPad Software Inc., California, United States).

in vitro [10] = settings: human, human liver microsomes, pH 7.4, Km of crizotinib, HLM 0.3 mg/mL, 1 mM NADPH, 0.1–50 µM crizotinib
[11] = system: rat liver microsomes (RLM); assay: Enzyme kinetics of crizotinib in rat liver microsomes (Michaelis-Menten)
Method: as §1, §2

[12] = system: crizotinib metabolism in rat liver microsomes (RLM); assay: Inhibition of crizotinib metabolism by tropifexor in RLM (IC50, Lineweaver-Burk); assay type: in vitro ADME
[13] = biological target: crizotinib metabolism in human liver microsomes (HLM) (Homo sapiens, UniProt P08684); assay: Inhibition of crizotinib metabolism by tropifexor in HLM (IC50, Lineweaver-Burk); assay type: in vitro ADME
[14] = parameters: method as in Badman et al., 2020; settings: healthy volunteers, single dose of up to three mg; ref Badman et al., 2020; cited from earlier work
[15] = parameters: method as in Chen et al., 2022b; settings: ref Chen et al., 2022b; cited from earlier work
[16] = group Crizotinib + Tropifexor: oral tropifexor 20 µg/kg 30 min before oral crizotinib 25 mg/kg
[17] = group Crizotinib alone: single oral crizotinib 25 mg/kg
[18] = rats, compared to control group

crizotinib metabolism in human liver microsomes (HLM), sequence (P08684 2-503): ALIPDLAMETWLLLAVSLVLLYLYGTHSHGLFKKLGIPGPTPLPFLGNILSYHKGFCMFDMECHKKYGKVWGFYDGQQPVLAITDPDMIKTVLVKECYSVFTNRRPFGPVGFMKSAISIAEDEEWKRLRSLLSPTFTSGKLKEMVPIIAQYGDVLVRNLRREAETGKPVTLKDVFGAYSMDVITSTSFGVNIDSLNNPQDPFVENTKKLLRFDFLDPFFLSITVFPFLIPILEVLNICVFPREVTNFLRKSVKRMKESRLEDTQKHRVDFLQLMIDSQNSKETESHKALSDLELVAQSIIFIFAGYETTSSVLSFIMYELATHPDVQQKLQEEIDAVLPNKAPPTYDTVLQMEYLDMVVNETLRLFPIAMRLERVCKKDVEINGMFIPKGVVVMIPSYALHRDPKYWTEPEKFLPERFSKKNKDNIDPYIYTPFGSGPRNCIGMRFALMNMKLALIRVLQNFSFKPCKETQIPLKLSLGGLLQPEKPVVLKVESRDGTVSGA

`C[C@@H](Oc1cc(-c2cnn(C3CCNC(=O)C3)c2)cnc1N)c1c(Cl)ccc(F)c1Cl` (some centres unmarked) [2-Keto crizotinib] showed an AUC(0-inf) [1, 16] of 880 ± 269 ng·h/mL, an AUC(0-t) [1, 16] of 877 ± 268 ng·h/mL and a Cmax [1, 16] of 74.3 ± 26.8 ng/mL. For the same molecule, the Tmax [1, 16] was 8.8 ± 1.79 h, the half-life [1, 16] was 5.78 ± 1.79 h and the CL/F [1, 16] was 507 mL/min/kg. For the same molecule, the AUC(0-inf) [1, 17] was 605 ± 99.1 ng·h/mL, the AUC(0-t) [1, 17] was 603 ± 97.7 ng·h/mL and the Cmax [1, 17] was 51 ± 14.4 ng/mL. It also gave a Tmax [1, 17] of 8 h, a half-life [1, 17] of 4.82 ± 1.18 h and a CL/F [1, 17] of 704 mL/min/kg. For the same molecule, the “decrease of CLz/F on co-administration of tropifexor” value [1, 18] was 27.9%, the “Stability RE” value ([2]; 2 ng/mL, 10 °C (4 h)) was 2.2% and the “Stability RE” value ([2]; 2 ng/mL, 21 days at −80 °C) was 14.7%. For the same molecule, the “Stability RE” value ([2]; 2 ng/mL, room temperature (3 h)) was 9.9%, the “Stability RE” value ([2]; 2 ng/mL, three freeze-thaw (−80 °C/RT)) was 11.9% and the “Stability RE” value ([2]; 40 ng/mL, 10 °C (4 h)) was 0.6%. For the same molecule, the “Stability RE” value ([2]; 40 ng/mL, 21 days at −80 °C) was 5.2%, the “Stability RE” value ([2]; 40 ng/mL, room temperature (3 h)) was 2.0% and the “Stability RE” value ([2]; 40 ng/mL, three freeze-thaw (−80 °C/RT)) was −0.7%. The “Stability RE” value ([2]; 80 ng/mL, 10 °C (4 h)) was −0.6%, the “Stability RE” value ([2]; 80 ng/mL, 21 days at −80 °C) was 5.9% and the “Stability RE” value ([2]; 80 ng/mL, room temperature (3 h)) was 3.0%. The “Stability RE” value ([2]; 80 ng/mL, three freeze-thaw (−80 °C/RT)) was −0.7%.
In the case of `C[C@@H](Oc1cc(-c2cnn(C3CCNCC3)c2)cnc1N)c1c(Cl)ccc(F)c1Cl` [crizotinib, Crizotinib], the AUC(0-inf) [1, 16] is reported as 5670 ng·h/mL, the AUC(0-t) [1, 16] is reported as 5560 ng·h/mL and the Cmax [1, 16] is reported as 326 ± 41 ng/mL. The Tmax [1, 16] was 8.8 ± 1.79 h, the half-life [1, 16] was 8.23 ± 1.65 h and the CL/F [1, 16] was 76 mL/min/kg. It also gave an AUC(0-inf) [1, 17] of 4140 ng·h/mL, an AUC(0-t) [1, 17] of 4100 ng·h/mL and a Cmax [1, 17] of 237 ± 45.3 ng/mL. It also gave a Tmax [1, 17] of 8.8 ± 1.79 h, a half-life [1, 17] of 6.83 ± 0.77 h and a CL/F [1, 17] of 102 mL/min/kg. For the same molecule, the “increase of AUC(0−t) on co-administration of tropifexor” value [1, 18] was 35.7%, the “increase of AUC(0−∞) on co-administration of tropifexor” value [1, 18] was 36.9% and the “Stability RE” value ([2]; 5 ng/mL, 10 °C (4 h)) was 0.5%. The “Stability RE” value ([2]; 5 ng/mL, 21 days at −80 °C) was −1.9%, the “Stability RE” value ([2]; 5 ng/mL, room temperature (3 h)) was −9.0% and the “Stability RE” value ([2]; 5 ng/mL, three freeze-thaw (−80 °C/RT)) was −8.3%. The “Stability RE” value ([2]; 120 ng/mL, 10 °C (4 h)) was 5.9%, the “Stability RE” value ([2]; 120 ng/mL, 21 days at −80 °C) was 4.7% and the “Stability RE” value ([2]; 120 ng/mL, room temperature (3 h)) was −6.9%. For the same molecule, the “Stability RE” value ([2]; 120 ng/mL, three freeze-thaw (−80 °C/RT)) was −7.1%, the “Stability RE” value ([2]; 240 ng/mL, 10 °C (4 h)) was 3.6% and the “Stability RE” value ([2]; 240 ng/mL, 21 days at −80 °C) was 6.9%. For the same molecule, the “Stability RE” value ([2]; 240 ng/mL, room temperature (3 h)) was −1.6%, the “Stability RE” value ([2]; 240 ng/mL, three freeze-thaw (−80 °C/RT)) was −7.4% and the “drug excreted unchanged in the feces” value [3] was “approximately 63%”. For the same molecule, the “likelihood of crizotinib-induced hepatotoxicity, patients with pre-existing liver conditions vs without liver disease” value ([4]; ref Jung et al., 2018) was 2.3 times, the “patients with elevated alanine aminotransferase (ALT) levels” value ([4]; standard dose of crizotinib, ref Kazandjian et al., 2014) was 17% and the “patients with Grade 1 or 2 liver abnormalities” value ([4]; typically within two months of treatment, reversible, ref Revol et al., 2020) was 30%. The “increase in AUC on co-administration with ketoconazole” value [5] was 2.2 fold, the “predicted increase of AUC when co-administered with fluconazole” value [6] was 58% and the “predicted increase of AUC when co-administered with itraconazole” value [6] was 79%. The “predicted increase of AUC when co-administered with voriconazole” value [6] was 84%, the Km (RLM) was 4.61 ± 0.28 µM and the Cmax ([7]; SD rats, oral 24 mg/kg) was 309 ± 39.8 ng/mL. For the same molecule, the Tmax ([7]; SD rats, oral 24 mg/kg) was 2.00 ± 0.00 h, the oral absolute bioavailability ([7]; rats) was 68.6 ± 9.63% and the “time at which Cmax was observed” value [8] was 4 h. The Km at 30 min (in vitro [9]) was 1 µM, the Km at 30 min (in vitro [10]) was 15 µM and the Vmax [11] was 0.01457 pmol/min/µg protein.
In the case of `O=C(O)c1cc(F)c2nc(N3[C@@H]4CC[C@H]3C[C@@H](OCc3c(-c5ccccc5OC(F)(F)F)noc3C3CC3)C4)sc2c1` [tropifexor, Tropifexor], the “inhibition mechanism on crizotinib metabolism” value [12] is reported as “non-competitive and uncompetitive”, the α [12] is reported as 0.66 and the Ki ([12]; n = 3) is reported as 5.6 µM. The αKi ([12]; n = 3) was 3.72 µM, the IC50 ([12]; read-out: IC50 of tropifexor on crizotinib metabolism, crizotinib at Km) was 4.43 µM and the “inhibition mechanism on crizotinib metabolism” value [13] was “competitive and non-competitive”. For the same molecule, the α [13] was 2.71, the IC50 at 0.5 h ([13]; human, liver microsomes, pH 7.4, IC50 of tropifexor on crizotinib metabolism, crizotinib at Km) was 4.3 µM and the Ki at 0.5 h ([13]; human, liver microsomes, pH 7.4, n = 3) was 4.93 µM. The αKi ([13]; n = 3) was 13.38 µM, the safety and tolerability [14] was “safe and well-tolerated” and the “decrease in Cmax on co-administration with a CYP3A4 inhibitor” value [15] was 9%. For the same molecule, the “decrease in Cmax on co-administration with the CYP3A4 inducer rifampin” value [15] was 55%.
